Source: patent publication US20070275911A1, “Targeted Drug-Formaldehyde Conjugates and Methods of Making and Using the Same” (priority 2003, published 2007)

Columns and labels:
[1] = Tolerance, acute toxicity and efficacy in mice; conditions: preliminary mouse in vivo formulation experiments
MDA-MB-231 cells = assay: Uptake and release by flow cytometry; type: cell-based, human
Description: Additionally, uptake and release data were obtained for DOX, DOXSF, and DOX-TEG-TAM in estrogen receptor-negative MDA-MB-435 and MDA-MB-231 cells. In both cell lines DOX-TEG-TAM was also taken up to a much greater extent than DOX and DOXSF. In MDA-MB-435 cells DOX-TEG-TAM was taken up 3-fold and 5-fold more than DOXSF and DOX, respectively. In MDA-MB-23 1 cells DOX-TEG-TAM was taken up 2-fold and 6-fold more than DOXSF and DOX, respectively.
(§1) Uptake and release of DOX, DOXSF, and DOX-TEG-TAM: The uptake and release of DOX-TEG-TAM in breast cancer cells relative to DOX and untargeted DOXSF was performed as described with modifications. Breast cancer cells in log phase growth were dissociated with trypsin-EDTA, counted, resuspended in media at 1.5×10^5 cells/mL, and plated into six well plates (450,000 cells/well) and allowed to adhere overnight. The cells were treated with 0.5 μM DOX, DOXSF, or DOX-TEG-TAM for various amounts of time (20 min, 40 min, and 60 min). Drug treatment was accomplished by addition of 30 μL of 100× drug solution (50 μM) to 3 mL of media which was mixed and immediately added to the cells. For each time point, the media was removed, cells were trypsinized, and trypsinization was quenched with 3 mL phenol red-free RPMI 1640 media (no serum) at 4° C. Cells were pelleted by centrifugation at 300 g for 5 min at 10° C. The supernatant was decanted and the cells were re-suspended in 1 mL serum- and phenol red-free RPMI 1640 media and placed on ice.
For drug retention samples, the cells were treated for 1 h with 0.5 μM DOX, DOXSF, or DOX-TEG-TAM. Following drug treatment, the media was removed and replaced with 3 mL fresh, 37° C., full (containing serum and phenol red indicator) cell media and the cells were incubated for various times (0.5 h, 1 h, 3 h, and 6 h). Following the allotted release times, the cells were prepared as described above. Drug treatment was performed such that all cell samples would be prepared within 2 h.
(§2) The extent of drug uptake and retention was measured by flow cytometry. Cells were analyzed with excitation at 488 nm (15 mW Ar ion laser), with emission monitored between 570 and 600 nm. Instrument settings were optimized for each cell line and held constant for all experiments; 10,000 cells were analyzed for anthracycline fluorescence. The data are presented as the mean fluorescence for each condition with the background, drug-free cell fluorescence subtracted.

Rtx-6 cells = assay: Uptake and estradiol competition by flow cytometry; type: cell-based
Procedure: The uptake and release in Rtx-6 cells were also investigated. Rtx-6 cells were treated with DOX, DOXSF, or DOX-TEG-TAM as described above to determine both the uptake and the release of drug following a 1 h treatment. DOX-TEG-TAM was taken up to a greater extent than DOX (>3-fold) and DOXSF (>2-fold). The enhanced uptake relative to DOX and DOXSF could be attributed to the presence of ER and the lipophilicity of DOX-TEG-TAM. The uptake of DOX-TEG-TAM in Rtx-6 cells is perhaps best compared to the uptake in the parent MCF-7 cell line. DOX-TEG-TAM was taken up to a greater extent in MCF-7 cells (25 RFU) relative to Rtx-6 cells (14 RFU). One possible explanation for this difference is the presence of both AEBS and ER in MCF-7 cells versus only ER in Rtx-6 cells. […] No further inhibition occurs at higher concentrations, possibly because of non-specific binding of DOX-TEG-TAM at hydrophobic sites in Rtx-6 cells.
as §1, §2
The cell samples were prepared and analyzed by flow cytometry as described above.

estrogen receptor = target: T1, estrogen receptor (Homo sapiens, UniProt P03372); assay: Estrogen receptor competitive binding assay (3H-E2, MCF-7 cell lysate)
T1 construct: endogenous in cells; host or cells: MCF-7 cells (ATCC); 225,000 g supernatant of sonicated lysate

PC3/AR and PC3/neo cells = conditions: 3 h treatment / over time
Procedure: The fluorescence of doxorubicin can be monitored in order to determine the rate of uptake and intracellular distribution of the anthraquinone fluorophore.
This cell suspension was dispensed in 2 mL aliquots into 6-well tissue culture plates. Plates were then incubated for 36 h at 37° C. in a humidified atmosphere of 5% CO2 and 95% air. The medium was replaced with 1 mL of phenol red-free RPMI 1640 growth medium supplemented with 10% dextran-coated charcoal stripped FBS prior to addition of the test compound. The appropriate compound was dissolved in DMSO and the concentration was adjusted to 50-200 μM by measuring the solution absorbance at 480 nm. Addition of 10 μL of the appropriate doxorubicin or prodrug solution was followed by incubation at 37° C. as indicated. The drug solution in individual wells was removed at the appropriate time and the cells were washed with 1 mL of the phenol red-free growth medium. The washed cells were then supplemented with 1 mL of phenol-red free growth medium for imaging.

T1 sequence (P03372 whole entry): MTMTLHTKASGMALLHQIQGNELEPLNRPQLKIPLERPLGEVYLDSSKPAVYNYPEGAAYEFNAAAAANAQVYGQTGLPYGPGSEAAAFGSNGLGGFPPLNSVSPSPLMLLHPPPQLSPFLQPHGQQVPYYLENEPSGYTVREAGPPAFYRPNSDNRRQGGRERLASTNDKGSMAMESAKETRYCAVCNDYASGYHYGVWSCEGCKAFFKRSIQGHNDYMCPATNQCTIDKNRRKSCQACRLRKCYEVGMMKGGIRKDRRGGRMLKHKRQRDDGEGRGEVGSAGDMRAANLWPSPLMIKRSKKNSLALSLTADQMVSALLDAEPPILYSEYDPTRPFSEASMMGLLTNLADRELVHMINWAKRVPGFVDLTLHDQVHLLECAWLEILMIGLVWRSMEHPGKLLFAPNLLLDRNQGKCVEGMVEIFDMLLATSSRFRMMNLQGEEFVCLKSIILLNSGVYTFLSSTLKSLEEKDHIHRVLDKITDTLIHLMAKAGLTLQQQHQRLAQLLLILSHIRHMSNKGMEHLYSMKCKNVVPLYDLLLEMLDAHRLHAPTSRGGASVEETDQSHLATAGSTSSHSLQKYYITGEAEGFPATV

| Structure (SMILES) | acute toxicity [1] | fold uptake more than DOX (MDA-MB-231 cells; MDA-MB-231) | fold uptake more than DOXSF (MDA-MB-231 cells; MDA-MB-231) | uptake relative to MDA-MB-435 cells (MDA-MB-231 cells; MDA-MB-231, 1 h, 500 nM) | fluorophore retention vs DOXSF or DOX (MDA-MB-231 cells; MDA-MB-231, after 1 h treatment with 500 nM) | fold uptake greater than DOX (Rtx-6 cells; Rtx-6) | fold uptake greater than DOXSF (Rtx-6 cells; Rtx-6) | inhibition of uptake by estradiol (Rtx-6 cells; Rtx-6, 0.5 μM drug, 20 nM estradiol) | drug uptake (DOX fluorophore) (Rtx-6 cells; Rtx-6, 1 h treatment) | estrogen receptor binding affinity retained relative to targeting group alone (estrogen receptor) | RBA^OHT (estrogen receptor; relative to E/Z-4-OHT = 100) | intracellular distribution of fluorescence over time (PC3/AR and PC3/neo cells) |
| --- | --- | --- | --- | --- | --- | --- | --- | --- | --- | --- | --- | --- |
| CC/C(=C(/c1ccc(O)cc1)c1ccc(OCCN(C)CCOCCOCCO/N=C/c2ccc(O)c(C(=O)NCN[C@H]3C[C@H](O[C@H]4C[C@](O)(C(=O)CO)Cc5c(O)c6c(c(O)c54)C(=O)c4c(OC)cccc4C6=O)O[C@@H](C)[C@H]3O)c2)cc1)c1ccccc1 [11c, E/Z-N-(2-Hydroxy-5-{[2-(2-{2-[(2-{4-[1-(4-hydroxy-phenyl)-2-phenyl-but-1-enyl]-phenoxy}-ethyl)-methyl-amino]-ethoxy}-ethoxy)-ethoxyimino]-methyl}-benzamide)-doxorubicin] | substantially less than that of doxoform | 6 fold | 2 fold | about 25% | retained to a greater extent | > 3 fold | > 2 fold | 70% | 14 RFU | 2.5% | 2.5 | – |
| COc1cccc2c1C(=O)c1c(O)c3c(c(O)c1C2=O)C[C@@](O)(C(=O)CO)C[C@@H]3O[C@H]1C[C@H](NCNC(=O)c2ccccc2O)[C@H](O)[C@H](C)O1 [doxsaliform, N-(2-Hydroxybenzamido-methyl)-doxorubicin] | – | – | – | – | – | – | – | – | – | – | – | exclusive nuclear accumulation of fluorescence |
